Data taken from publication PMC8305389, “Tuning Photodynamic Properties of BODIPY Dyes, Porphyrins’ Little Sisters” (Molecules, 2021).
Marks after values point to notes of the source that are not given here. One block for each molecule: values may come before it.

Assays:
HeLa cells [1] = system: HeLa cells; set-up: method as in PMID 27682881; conditions: cited from earlier work; for EC50: HeLa, λ > 570 nm, 12.4 mW cm−2, 15 min, 11.2 J cm−2, read-out: EC50, photodynamic activity; for TC50/EC50, phototherapeutic index: on HeLa cells
HeLa cells [2] = system: HeLa cells; set-up: method as in PMID 27682881; conditions: on HeLa cells; cited from earlier work
SK-MEL-28 cells [3] = assay: RealTime-Glo Annexin V Apoptosis and Necrosis Assay (cell death determination); format: cell-based, human; conditions: TRAIL 400 ng/mL, paclitaxel 1 μM, digitonin 25 μg/mL
From the text: A RealTime-Glo™ Annexin V Apoptosis and Necrosis Assay (Promega, Madison, WI, USA) was utilized for the real-time assessment of cell death. This monitors phosphatidylserine exposure on the outer leaflet of the cytoplasmic membrane (increase in luminescence signal) together with binding of the membrane-impermeable probe to DNA (increase in fluorescence signal) that accompanies a loss of membrane integrity, typical for late stages of apoptosis (secondary necrosis) or necrotic type of cell death. According to the manufacturer, this assay uses Annexin V fusion proteins containing complementary subunits of luciferase (Annexin V-LgBiT and Annexin V-SmBiT). The luminescence signal is low until both subunits bind to phosphatidylserine, and in close vicinity form functional luciferase.
For this assay, SK-MEL-28 cells were seeded onto 96-well white clear-bottom plates (Corning, New York, NY, USA) in a 1:1 mixture of DMEM and CO2 independent medium (Gibco; supplemented with 10% FBS, 1% penicillin/streptomycin solution and 4 mM ultraglutamine I). The next day, the medium was replaced with a fresh CO2 independent medium, and cells were incubated overnight. The next day, studied PSs dissolved in a CO2 independent medium in concentrations corresponding to their EC85 were added as described above. […] After mixing, samples were placed into a plate reader with a temperature control (Tecan Spark, Männedorf, Switzerland) and measured each 15 min for 24 h—luminescence (200 ms integration time) and fluorescence (λexc = 485 nm; λemi = 530 nm, BPexc/emi = 20 nm; 10 flashes per well, 40 μs integration time).
Digitonin (25 μg/mL), TRAIL (400 ng/mL), and paclitaxel (1 μM) were used as positive controls for membrane-disturbing-agent induced necrosis, extrinsic-pathway-mediated apoptosis, and intrinsic-pathway-mediated apoptosis, respectively. Cell-free wells (no-cell controls) were used to subtract background luminescence and fluorescence for each time point. […]

[4] = system: human melanoma (SK-MEL-28) cells; assay: Photodynamic activity (phototoxicity) after light activation, Neutral Red uptake; format: cell-based
Procedure: (§1) The human cervical carcinoma (HeLa) and human melanoma (SK-MEL-28) cell lines were purchased from the American Type Cell Culture Collection (ATCC; Manassas, VA, USA). Both cell lines were cultured in Dulbecco’s modified Eagle’s medium (DMEM) without phenol red (Lonza, Verviers, Belgium) and supplemented with 10% heat-inactivated fetal bovine serum (Sigma-Aldrich (Merck, Darmstadt, Germany), 1% penicillin/streptomycin solution (Lonza), 10 mM HEPES buffer (Lonza), and 4 mM ultraglutamine I (alanyl-L-glutamine; Lonza). The cell lines were cultured in 75 cm^2 tissue culture flasks (TPP, Trasadingen, Switzerland) and maintained in a CO2 incubator at 37 °C in a humidified atmosphere of 5% CO2 and subcultured every 3−4 days. For the cytotoxicity experiments (phototoxicity and dark toxicity), cells were seeded into 96-well plates (TPP) at a density of 7.5 × 10^3 (HeLa and SK-MEL-28) cells per well for 24 h.
(§2) Stock solutions of the investigated compounds were prepared in DMSO at a concentration of 0.5 mM (4b) or 1 mM (all other compounds) and were sterilized by filtration through 0.22 μm syringe MCE filters. The stock solutions were diluted by the above-mentioned cell culture medium to the required concentrations. The maximum DMSO concentration in the medium in the experiments was 1% (2% in case of cpd. 4b). Cytoxicity of DMSO at corresponding concentrations (without studied compounds) was assessed in all cytotoxicity experiments as well—no toxicity against SK-MEL-28 or HeLa cells was observed.
(§3) For the photodynamic activity assessment experiments (phototoxicity), both HeLa and SK-MEL-28 cells were incubated overnight (12 h) with the studied compounds. The cells were then carefully and swiftly washed twice with a prewarmed sterile phosphate-buffered saline, fresh cell culture medium was added, and cells were subsequently irradiated for 15 min using a 450 W ozone-free Xe lamp (Newport; intensity reduced to 400 W). The lamp was equipped with a long-pass filter (Newport 20CGA-455) and an 8-cm water filter to cut off undesirable wavelengths and heat radiation, respectively (λ > 455 nm, 15.3 mW cm^−2, 15 min, 13.7 J cm^−2). Cellular viability was measured after an additional 24 h by the above-mentioned NR uptake assay. At least four independent experiments, each in triplicate, were performed.
(§4) The concentrations of the studied compounds that induced a 50% decrease in cellular viability after treatment under the dark conditions (TC50, the median toxic concentration) or after the photodynamic treatment (EC50, the median effective concentration) were calculated using GraphPad Prism software (version 9.1.2; GraphPad Software, Inc., San Diego, CA, USA) for each independent experiment. The data are presented as the means ± standard deviations of these values.

[5] = system: human cervical carcinoma (HeLa) cells; assay: as above; format: cell-based; conditions: Homo sapiens, light or radiation study; HeLa; 12 h incubation; λ > 455 nm, 15.3 mW cm−2, 15 min, 13.7 J cm−2
Procedure: as §1, §2, §3, §4

SK-MEL-28 cells [6] = assay: Dark toxicity (without irradiation), Neutral Red uptake; format: cell-based, human; conditions: 24 h in the dark, compounds precipitated over listed values
Procedure: as §1, §2
To assess dark toxicities (inherent toxicities of the studied compounds without irradiation), SK-MEL-28 cells were treated with studied PSs for 24 h in the dark. Viability was evaluated after two washing steps using the Neutral Red (NR; Sigma-Aldrich (Merck, Darmstadt, Germany) uptake assay, based on the ability of the living cells to incorporate NR into their intact lysosomes (concentration of NR in cell culture medium was 30 μg/mL and incubation time with NR was 2 h). The absorbance of soluble NR in cell lysate was measured at λ = 540 nm using a Tecan Infinite 200 M plate reader (Tecan, Männedorf, Switzerland). The viability of each experimental group was expressed as the percentage of the untreated controls incubated under the same conditions (100%). After staining (before lysis), the cells were briefly investigated under the microscope to verify changes in cellular morphology and the presence of NR in lysosomes (orange-red spots in the cells). These observations were in agreement with NR measurements.
as §4

[7] = Absorption and fluorescence measurements (quantum yield, lifetime); format: physicochemical; conditions: MeOH
Procedure: The singlet oxygen quantum yields (ΦΔ) and the fluorescence quantum yields (ΦF) of tested samples in MeOH were determined using published comparative (relative) methods with rhodamin-G6 used as a reference for fluorescence (ΦF = 0.94 in EtOH [31]), and bengal rose as a reference for singlet oxygen determinations (ΦΔ = 0.76 in MeOH [32]). Singlet oxygen measurements were performed with 1,3-diphenylisobenzofuran as the chemical scavenger of singlet oxygen by monitoring its decomposition at 417 nm. The ΦF values were also determined by an absolute method using an integrating sphere in an FLS1000 fluorimeter (Edinburgh Instruments, Edinburgh, UK). Fluorescence lifetimes were measured on the same fluorimeter upon excitation by HPL510 laser (Edinburgh Instruments, λ = 506.1 nm).

[8] = Photobleaching in serum-containing cell culture medium; format: physicochemical; conditions: 10 µM, 1 h of irradiation, 500W halogen lamp
Procedure: The photobleaching experiments were performed in a serum-containing cell culture medium at a concentration of 10 µM. The samples were prepared by direct dilution from the 1 mM DMSO stock solution (0.5 mM in case of 4b). The quartz cuvette with the sample (2.5 mL) was irradiated by the 500W halogen lamp (Tip) from a distance of 60 cm at room temperature. The light was filtered through a 7 cm water filter to eliminate heat. The absorption spectra were collected every 10 min. The experiment was performed in triplicate.

[9] = set-up: method as in PMID 10546544; conditions: in MeOH; cited from earlier work
[10] = set-up: method as in doi:10.1016/0009-2614(96)00838-X; conditions: in EtOH; cited from earlier work

Molecule: C=CC1=C(C)c2cc3[nH]c(cc4nc(cc5[nH]c(cc1n2)c(C)c5CCC(=O)O)C(CCC(=O)O)=C4C)c(C)c3C=C [Pp IX, protoporphyrin IX]
EC50 (HeLa cells [1]): 800 ± 130 nM
TC50/EC50, phototherapeutic index (HeLa cells [1]): >10 ^d
TC50, dark toxicity (HeLa cells [2]): >10 ^b,d μM

Molecule: C[C@@H]1CC[C@@]2(OC1)O[C@H]1[C@@H](O)[C@H]3[C@@H]4CC[C@H]5C[C@@H](O[C@@H]6O[C@H](CO)[C@H](O[C@@H]7O[C@H](CO)[C@@H](O)[C@H](O[C@@H]8OC[C@@H](O)[C@H](O)[C@H]8O)[C@H]7O[C@@H]7O[C@H](CO)[C@H](O)[C@H](O[C@@H]8O[C@H](CO)[C@@H](O)[C@H](O)[C@H]8O)[C@H]7O)[C@H](O)[C@H]6O)[C@H](O)C[C@]5(C)[C@H]4CC[C@]3(C)[C@H]1[C@@H]2C [digitonin]
delay between luminescence (Annexin V) and fluorescence (DNA probe) signal surge, positive controls (SK-MEL-28 cells [3]): simultaneous and immediate rise in luminescence and fluorescence

Molecule: CN(C)c1ccc2nc3ccc(=[N+](C)C)cc-3sc2c1 [Methylene blue]
EC50 (HeLa cells [1]): 5150 ± 1930 nM
TC50/EC50, phototherapeutic index (HeLa cells [1]): 4.4 ^d
TC50, dark toxicity (HeLa cells [2]): 22.7 ± 7.9 ^d μM

absorption maximum (λmax) [7]: 498 nm
emission maximum (λF) [7]: 507 nm
extinction coefficient (log ε) ([7]; at λmax): 4.77
fluorescence quantum yield, absolute method (ΦF(absol)) ([7]; integrating sphere): 0.52
fluorescence quantum yield, relative method (ΦF(relat)) ([7]; rhodamin-G6 as reference): 0.49
fluorescence lifetime (τF) ([7]; λexc = 506.1 nm): 3.27 ns
absorption remaining, of the original value, after irradiation (photobleaching) [8]: approximately 87%
Molecule: CC1=CC(C)=[N+]2C1=C(c1ccc(OCCCCCN3C(=O)c4ccccc4C3=O)cc1)c1c(C)cc(C)n1[B-]2(F)F [2a, 1,3,5,7-Tetramethyl-8-{4-[5-(phthalimidyl)pentyloxy]phenyl}-4,4-difluoro-4-bora-3a,4a-diaza-s-indacene]
TC50/EC50, phototherapeutic index [4]: >3.92
EC50 ([4]; Homo sapiens, light or radiation study, 12 h incubation, λ > 455 nm, 15.3 mW cm−2, 15 min, 13.7 J cm−2): 2550 ± 140 nM
EC50 [5]: 3600 ± 190 nM
TC50, dark toxicity (SK-MEL-28 cells [6]): >10^b μM

Molecule: CC(=O)O[C@H]1C(=O)[C@@]2(C)[C@H]([C@H](OC(=O)c3ccccc3)[C@]3(O)C[C@H](OC(=O)[C@H](O)[C@@H](NC(=O)c4ccccc4)c4ccccc4)C(C)=C1C3(C)C)[C@]1(OC(C)=O)CO[C@@H]1C[C@@H]2O [paclitaxel]
delay between luminescence (Annexin V) and fluorescence (DNA probe) signal surge, positive controls (SK-MEL-28 cells [3]): ~11.5 h

Molecule: O=C(O)c1c(Cl)c(Cl)c(Cl)c(Cl)c1-c1c2cc(I)c(=O)c(I)c-2oc2c(I)c(O)c(I)cc12 [bengal rose]
singlet oxygen quantum yield (ΦΔ) of reference [9]: 0.76

Molecule: CCN=c1cc2oc3cc(NCC)c(C)cc3c(-c3ccccc3C(=O)OCC)c-2cc1C.Cl [rhodamin-G6]
fluorescence quantum yield (ΦF) of reference [10]: 0.94

Molecule: Oc1cccc(-c2c3nc(c(-c4cccc(O)c4)c4ccc([nH]4)c(-c4cccc(O)c4)c4nc(c(-c5cccc(O)c5)c5ccc2[nH]5)CC4)C=C3)c1 [temoporfin]
EC50 (HeLa cells [1]): 45 ± 7 nM
TC50/EC50, phototherapeutic index (HeLa cells [1]): 460 ^d
TC50, dark toxicity (HeLa cells [2]): 20.6 ± 2.5 ^d μM

B1: TRAIL: inducer of extrinsic-pathway apoptosis, positive control (protein, UniProt P50591 1-281, looked up)
Tumor necrosis factor ligand …: MAMMEVQGGPSLGQTCVLIVIFTVLLQSLCVAVTYVYFTNELKQMQDKYSKSGIACFLKEDDSYWDPNDEESMNSPCWQVKWQLRQLVRKMILRTSEETISTVQEKQQNISPLVRERGPQRVAAHITGTRGRSNTLSSPNSKNEKALGRKINSWESSRSGHSFLSNLHLRNGELVIHEKGFYYIYSQTYFRFQEEIKENTKNDKQMVQYIYKYTSYPDPILLMKSARNSCWSKDAEYGLYSIYQGGIFELKENDRIFVSVTNEHLIDMDHEASFFGAFLVG
delay between luminescence (Annexin V) and fluorescence (DNA probe) signal surge, positive controls (SK-MEL-28 cells [3]): approximately 3.5 h
